US8563545B2, “Compound useful for the treatment of degenerative and inflammatory diseases” (Galapagos NV, priority 2009, dated 2013)
pIC50: −log10 of the molar value. Several values for one entry are separate records, joined by “and”; a condition that tells them apart may be missing. Equal entries are not always repeated.

What was measured:
JAK1 = JAK1 (Homo sapiens (Human), UniProt P23458); experiment: JAK1 inhibition assay; assay type: biochemical
Protocol: (§1) Plates were washed 6 times with 300 μL per well of a 75 mM phosphoric acid solution and the bottom of the plates was sealed. 40 μL/well of Microscint-20 was added, the top of the plates was sealed and readout was performed using the Topcount (Perkin Elmer). Kinase activity was calculated by subtracting counts per minute (cpm) obtained in the presence of a positive control inhibitor (10 μM staurosporine) from cpm obtained in the presence of vehicle. The ability of a test compound to inhibit this activity was determined as:
(§2) Percentage inhibition=((cpm determined for sample with test compound present−cpm determined for sample with positive control inhibitor)divided by(cpm determined in the presence of vehicle−cpm determined for sample with positive control inhibitor))*100.
Dose dilution series were prepared for the compounds enabling the testing of dose-response effects in the JAK1 assay and the calculation of the IC50 for each compound.

JAK2 = JAK2 (Homo sapiens (Human), UniProt O60674); experiment: JAK2 inhibition assay; assay type: biochemical
Protocol: as §1, with “After 90 min at 30° C., reactions were stopped by adding of 25 μL/well of 150 mM phosphoric acid. […] Plates” for “Plates”
as §2
Dose dilution series were prepared for the compounds enabling the testing of dose-response effects in the JAK2 assay and the calculation of the IC50 for each compound.

Sequence of JAK2 (O60674 808-1132): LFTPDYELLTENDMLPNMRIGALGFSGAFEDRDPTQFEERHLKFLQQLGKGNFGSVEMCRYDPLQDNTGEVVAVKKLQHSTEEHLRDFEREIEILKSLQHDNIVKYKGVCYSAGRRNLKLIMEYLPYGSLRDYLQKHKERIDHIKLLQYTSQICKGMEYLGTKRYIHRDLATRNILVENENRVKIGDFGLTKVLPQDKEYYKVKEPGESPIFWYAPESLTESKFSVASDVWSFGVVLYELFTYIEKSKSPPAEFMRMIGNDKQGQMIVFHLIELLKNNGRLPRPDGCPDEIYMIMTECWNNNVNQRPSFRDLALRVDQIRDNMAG
Sequence of JAK1 (P23458 850-1154): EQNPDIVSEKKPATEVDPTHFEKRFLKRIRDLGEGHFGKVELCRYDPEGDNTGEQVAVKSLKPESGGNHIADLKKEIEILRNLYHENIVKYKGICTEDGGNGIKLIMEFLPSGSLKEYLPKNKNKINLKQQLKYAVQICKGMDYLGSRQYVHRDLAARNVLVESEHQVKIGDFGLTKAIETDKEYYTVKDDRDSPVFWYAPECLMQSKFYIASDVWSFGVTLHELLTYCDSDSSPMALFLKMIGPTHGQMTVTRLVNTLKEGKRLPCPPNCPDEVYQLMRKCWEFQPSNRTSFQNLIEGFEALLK

Row | pIC50 (JAK1) | pIC50 (JAK2) | SMILES
1 | 6.54 | – | O=C(Nc1nc2cccc(-c3cccc(CN4CCOCC4)c3)n2n1)C1CC1 [Compound 3, N-(5-(3-(morpholinomethyl)phenyl)-[1,2,4]triazolo[1,5-a]pyridin-2-yl)cyclopropanecarboxamide]
2 | 5.99 | – | O=C(Nc1nc2cccc(-c3ccc(N4CCOCC4)nc3)n2n1)C1CC1 [Compound 4, N-(5-(6-morpholinopyridin-3-yl)-[1,2,4]triazolo[1,5-a]pyridin-2-yl)cyclopropanecarboxamide]
3 | 5.84 | 5.75 | O=C(Nc1nc2cccc(-c3ccc(N4CCOCC4)cc3)n2n1)C1CC1 [Compound 5, N-(5-(4-morpholinophenyl)-[1,2,4]triazolo[1,5-a]pyridin-2-yl)cyclopropanecarboxamide]
4 | 5.46 | 5.29 | CN1CCN(Cc2ccc(-c3cccc4nc(NC(=O)C5CC5)nn34)cc2)CC1 [Compound 6, N-(5-(4-((4-methylpiperazin-1-yl)methyl)phenyl)-[1,2,4]triazolo [1,5-a]pyridin-2-yl) cyclopropanecarboxamide]
5 | 6.30 | 5.19 | O=C(Nc1nc2cccc(-c3ccc(CN4CCCCC4)cc3)n2n1)C1CC1 [Compound 7, N-(5-(4-(piperidin-1-ylmethyl)phenyl)-[1,2,4]triazolo[1,5-a]pyridin-2-yl)cyclopropanecarboxamide]
6 | 6.36 | 5.11 and 5.87 | NC(=O)C1CCN(Cc2ccc(-c3cccc4nc(NC(=O)C5CC5)nn34)cc2)CC1 [Compound 8]
7 | 6.48 | 6.07 | CC(=O)N1CCN(Cc2ccc(-c3cccc4nc(NC(=O)C5CC5)nn34)cc2)CC1 [Compound 9, N-(5-(4-((4-acetoylpiperazin-1-yl)methyl)phenyl)-[1,2,4]triazolo[1,5-a]pyridin-2-yl)cyclopropanecarboxamide]
